Assay results taken from the NIST ThermoML archive (doi:10.1021/je400917j).
± gives the expanded uncertainty stated by the source.

Assay: xn = mol fraction of the nth substance listed
Details: 101 kPa, Liquid; for mass density: Vibrating tube method

CCCCCC(C)O (configuration not stated) [2-heptanol] + CC(=O)N(C)C
Details | mass density, 298.15 K [kg/m3] | mass density, 303.15 K [kg/m3] | mass density, 308.15 K [kg/m3] | mass density, 313.15 K [kg/m3] | viscosity, 298.15 K [mPa·s] | viscosity, 303.15 K [mPa·s] | viscosity, 308.15 K [mPa·s] | viscosity, 313.15 K [mPa·s]
x2 = 0 | 813.2 ± 0.2 | 809.5 ± 0.2 | 805.7 ± 0.2 | 801.5 ± 0.2 | 5.3 ± 0.15 | 4.48 ± 0.13 | 3.68 ± 0.11 | 2.96 ± 0.086
x2 = 0.0806 | 819 ± 0.2 | 814.8 ± 0.2 | 810.8 ± 0.2 | 806.5 ± 0.2 | 4.53 ± 0.13 | 3.75 ± 0.11 | 2.99 ± 0.087 | 2.51 ± 0.073
x2 = 0.1595 | 825 ± 0.2 | 820.7 ± 0.2 | 816.5 ± 0.2 | 812.1 ± 0.2 | 3.77 ± 0.11 | 3.17 ± 0.092 | 2.54 ± 0.074 | 2.13 ± 0.063
x2 = 0.2394 | 831.6 ± 0.2 | 827.1 ± 0.2 | 822.7 ± 0.2 | 818.1 ± 0.2 | 3.11 ± 0.09 | 2.6 ± 0.076 | 2.18 ± 0.064 | 1.82 ± 0.054
x2 = 0.3495 | 841.7 ± 0.2 | 837.1 ± 0.2 | 832.6 ± 0.2 | 827.7 ± 0.2 | 2.46 ± 0.072 | 2.08 ± 0.061 | 1.78 ± 0.053 | 1.48 ± 0.044
x2 = 0.4393 | 850.8 ± 0.2 | 846.2 ± 0.2 | 841.5 ± 0.2 | 836.6 ± 0.2 | 2.07 ± 0.061 | 1.775 ± 0.052 | 1.54 ± 0.046 | 1.28 ± 0.038
x2 = 0.559 | 864.7 ± 0.2 | 859.9 ± 0.2 | 855.1 ± 0.2 | 850.2 ± 0.2 | 1.65 ± 0.049 | 1.436 ± 0.043 | 1.26 ± 0.038 | 1.06 ± 0.032
x2 = 0.6494 | 876.4 ± 0.2 | 871.7 ± 0.2 | 866.8 ± 0.2 | 861.9 ± 0.2 | 1.41 ± 0.042 | 1.219 ± 0.037 | 1.08 ± 0.033 | 0.95 ± 0.029
x2 = 0.7393 | 889.4 ± 0.2 | 884.7 ± 0.2 | 879.9 ± 0.2 | 875.1 ± 0.2 | 1.2 ± 0.036 | 1.09 ± 0.033 | 0.98 ± 0.03 | 0.87 ± 0.027
x2 = 0.8494 | 907.5 ± 0.2 | 902.8 ± 0.2 | 898.1 ± 0.2 | 893.4 ± 0.2 | 1.06 ± 0.032 | 0.97 ± 0.03 | 0.88 ± 0.027 | 0.8 ± 0.025
x2 = 0.9393 | 924.2 ± 0.2 | 919.7 ± 0.2 | 915.3 ± 0.2 | 910.8 ± 0.2 | 0.98 ± 0.03 | 0.906 ± 0.028 | 0.82 ± 0.025 | 0.76 ± 0.024

CCCCC(C)O (configuration not stated) [2-hexanol] + CC(=O)N(C)C
Details | mass density, 298.15 K [kg/m3] | mass density, 303.15 K [kg/m3] | mass density, 308.15 K [kg/m3] | mass density, 313.15 K [kg/m3] | viscosity, 298.15 K [mPa·s] | viscosity, 303.15 K [mPa·s] | viscosity, 308.15 K [mPa·s] | viscosity, 313.15 K [mPa·s]
x2 = 0 | 810.1 ± 0.2 | 806.1 ± 0.2 | 802.1 ± 0.2 | 798 ± 0.2 | 4.1 ± 0.15 | 3.41 ± 0.12 | 2.82 ± 0.1 | 2.22 ± 0.083
x2 = 0.0817 | 816.9 ± 0.2 | 812.8 ± 0.2 | 808.6 ± 0.2 | 804.3 ± 0.2 | 3.46 ± 0.13 | 2.89 ± 0.11 | 2.42 ± 0.09 | 1.8 ± 0.068
x2 = 0.1606 | 824 ± 0.2 | 819.7 ± 0.2 | 815.4 ± 0.2 | 810.9 ± 0.2 | 2.87 ± 0.11 | 2.41 ± 0.09 | 2.05 ± 0.077 | 1.52 ± 0.058
x2 = 0.2405 | 831.5 ± 0.2 | 827.1 ± 0.2 | 822.7 ± 0.2 | 818.1 ± 0.2 | 2.35 ± 0.088 | 2 ± 0.075 | 1.76 ± 0.067 | 1.33 ± 0.051
x2 = 0.3506 | 842.9 ± 0.2 | 838.3 ± 0.2 | 833.8 ± 0.2 | 829 ± 0.2 | 1.82 ± 0.069 | 1.58 ± 0.06 | 1.44 ± 0.055 | 1.15 ± 0.045
x2 = 0.4404 | 852.9 ± 0.2 | 848.2 ± 0.2 | 843.6 ± 0.2 | 838.8 ± 0.2 | 1.54 ± 0.059 | 1.35 ± 0.052 | 1.25 ± 0.049 | 1.04 ± 0.041
x2 = 0.5601 | 867.5 ± 0.2 | 862.8 ± 0.2 | 858.1 ± 0.2 | 853.3 ± 0.2 | 1.29 ± 0.05 | 1.16 ± 0.045 | 1.06 ± 0.042 | 0.92 ± 0.037
x2 = 0.6505 | 879.6 ± 0.2 | 874.8 ± 0.2 | 870.1 ± 0.2 | 865.4 ± 0.2 | 1.14 ± 0.045 | 1.03 ± 0.041 | 0.94 ± 0.037 | 0.85 ± 0.034
x2 = 0.7405 | 892.6 ± 0.2 | 887.8 ± 0.2 | 883.2 ± 0.2 | 878.4 ± 0.2 | 1.03 ± 0.041 | 0.95 ± 0.038 | 0.87 ± 0.035 | 0.8 ± 0.032
x2 = 0.8504 | 909.9 ± 0.2 | 905.2 ± 0.2 | 900.7 ± 0.2 | 896.2 ± 0.2 | 0.97 ± 0.038 | 0.9 ± 0.036 | 0.82 ± 0.033 | 0.77 ± 0.031
x2 = 0.9405 | 925.4 ± 0.2 | 920.8 ± 0.2 | 916.5 ± 0.2 | 912.2 ± 0.2 | 0.95 ± 0.038 | 0.882 ± 0.035 | 0.81 ± 0.033 | 0.756 ± 0.031

CC(=O)N(C)C [N,N-dimethylethanamide] + CC(C)O
Details | mass density, 298.15 K [kg/m3] | mass density, 303.15 K [kg/m3] | mass density, 308.15 K [kg/m3] | mass density, 313.15 K [kg/m3] | viscosity, 298.15 K [mPa·s] | viscosity, 303.15 K [mPa·s] | viscosity, 308.15 K [mPa·s] | viscosity, 313.15 K [mPa·s]
x1 = 0.081 | 796.1 ± 0.2 | 791.8 ± 0.2 | 787.4 ± 0.2 | 782.8 ± 0.2 | 1.68 ± 0.05 | 1.53 ± 0.05 | 1.39 ± 0.04 | 1.22 ± 0.04
x1 = 0.16 | 810.3 ± 0.2 | 806 ± 0.2 | 801.6 ± 0.2 | 797 ± 0.2 | 1.47 ± 0.04 | 1.32 ± 0.04 | 1.23 ± 0.04 | 1.1 ± 0.03
x1 = 0.2399 | 824.2 ± 0.2 | 819.9 ± 0.2 | 815.4 ± 0.2 | 810.9 ± 0.2 | 1.33 ± 0.04 | 1.19 ± 0.04 | 1.11 ± 0.03 | 1 ± 0.03
x1 = 0.3499 | 842.7 ± 0.2 | 838.2 ± 0.2 | 833.8 ± 0.2 | 829.2 ± 0.2 | 1.21 ± 0.04 | 1.08 ± 0.03 | 1.01 ± 0.03 | 0.92 ± 0.03
x1 = 0.4399 | 857.1 ± 0.2 | 852.7 ± 0.2 | 848.2 ± 0.2 | 842.9 ± 0.2 | 1.13 ± 0.03 | 1.03 ± 0.03 | 0.96 ± 0.03 | 0.87 ± 0.03
x1 = 0.5598 | 875.6 ± 0.2 | 871.1 ± 0.2 | 866.7 ± 0.2 | 862.2 ± 0.2 | 1.06 ± 0.03 | 0.97 ± 0.03 | 0.91 ± 0.03 | 0.82 ± 0.03
x1 = 0.6496 | 888.9 ± 0.2 | 884.4 ± 0.2 | 880 ± 0.2 | 875.6 ± 0.2 | 1.02 ± 0.03 | 0.94 ± 0.03 | 0.88 ± 0.03 | 0.8 ± 0.03
x1 = 0.7394 | 901.7 ± 0.2 | 897.2 ± 0.2 | 892.8 ± 0.2 | 888.5 ± 0.2 | 0.99 ± 0.03 | 0.92 ± 0.03 | 0.86 ± 0.03 | 0.78 ± 0.02
x1 = 0.8495 | 916.8 ± 0.2 | 912.4 ± 0.2 | 908 ± 0.2 | 903.7 ± 0.2 | 0.97 ± 0.03 | 0.9 ± 0.03 | 0.84 ± 0.03 | 0.76 ± 0.02
x1 = 0.9399 | 928.8 ± 0.2 | 924.3 ± 0.2 | 920 ± 0.2 | 915.6 ± 0.2 | 0.95 ± 0.03 | 0.89 ± 0.03 | 0.823 ± 0.026 | 0.75 ± 0.02
x1 = 1 | 936.5 ± 0.2 | 932 ± 0.2 | 927.8 ± 0.2 | 923.5 ± 0.2 | 0.94 ± 0.03 | 0.87 ± 0.03 | 0.82 ± 0.03 | 0.75 ± 0.02

CC(=O)N(C)C [N,N-dimethylethanamide] + CCC(C)O
Details | mass density, 298.15 K [kg/m3] | mass density, 303.15 K [kg/m3] | mass density, 308.15 K [kg/m3] | mass density, 313.15 K [kg/m3] | viscosity, 298.15 K [mPa·s] | viscosity, 303.15 K [mPa·s] | viscosity, 308.15 K [mPa·s] | viscosity, 313.15 K [mPa·s]
x1 = 0.0812 | 813.5 ± 0.2 | 808.9 ± 0.2 | 804.1 ± 0.2 | 799.4 ± 0.2 | 2.57 ± 0.08 | 2.19 ± 0.06 | 1.89 ± 0.06 | 1.62 ± 0.05
x1 = 0.1602 | 823.6 ± 0.2 | 818.7 ± 0.2 | 813.6 ± 0.2 | 808.6 ± 0.2 | 2.16 ± 0.06 | 1.88 ± 0.06 | 1.65 ± 0.05 | 1.44 ± 0.04
x1 = 0.2401 | 833.9 ± 0.2 | 828.7 ± 0.2 | 823.7 ± 0.2 | 818.1 ± 0.2 | 1.81 ± 0.05 | 1.61 ± 0.05 | 1.45 ± 0.04 | 1.27 ± 0.04
x1 = 0.3499 | 848.2 ± 0.2 | 842.6 ± 0.2 | 837.1 ± 0.2 | 831.6 ± 0.2 | 1.45 ± 0.04 | 1.35 ± 0.04 | 1.25 ± 0.04 | 1.12 ± 0.03
x1 = 0.4355 | 859.4 ± 0.2 | 853.8 ± 0.2 | 848 ± 0.2 | 842.5 ± 0.2 | 1.27 ± 0.04 | 1.21 ± 0.04 | 1.14 ± 0.03 | 1.03 ± 0.03
x1 = 0.56 | 876 ± 0.2 | 870.3 ± 0.2 | 864.7 ± 0.2 | 859 ± 0.2 | 1.14 ± 0.03 | 1.09 ± 0.03 | 1.02 ± 0.03 | 0.93 ± 0.03
x1 = 0.65 | 888.1 ± 0.2 | 882.5 ± 0.2 | 876.8 ± 0.2 | 871.4 ± 0.2 | 1.08 ± 0.03 | 1.03 ± 0.03 | 0.95 ± 0.03 | 0.88 ± 0.03
x1 = 0.7398 | 900.3 ± 0.2 | 894.9 ± 0.2 | 890.2 ± 0.2 | 884.2 ± 0.2 | 1.03 ± 0.03 | 0.98 ± 0.03 | 0.91 ± 0.03 | 0.84 ± 0.03
x1 = 0.8498 | 915.4 ± 0.2 | 910.3 ± 0.2 | 906.1 ± 0.2 | 900.3 ± 0.2 | 0.99 ± 0.03 | 0.93 ± 0.03 | 0.86 ± 0.03 | 0.8 ± 0.03
x1 = 0.9389 | 927.8 ± 0.2 | 923.1 ± 0.2 | 918.9 ± 0.2 | 914 ± 0.2 | 0.96 ± 0.03 | 0.91 ± 0.03 | 0.82 ± 0.03 | 0.77 ± 0.02
x1 = 1 | 936.5 ± 0.2 | 932 ± 0.2 | 927.8 ± 0.2 | 923.5 ± 0.2 | 0.94 ± 0.03 | 0.87 ± 0.03 | 0.8 ± 0.03 | 0.75 ± 0.02
